Laboratory results published in the supplement of paper PMC10733146.

How the values were obtained:
Experiment in all cases: viability relative to DMSO control (fraction); higher = less drug effect (more viable cells)
Details in all cases: 48 h
[1] = tested on: primary AML patient cells (S027)
In short: (§1)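 The cells were primary mononuclear tumour cells, either fresh or cryopreserved, isolated by Ficoll from blood or bone marrow or derived from processed lymph node. Each well of a 384-well plate received 4 × 10^4 cells onto compounds pre-plated at five concentrations, with one well per concentration. The medium was RPMI-1640 with penicillin/streptomycin, L-glutamine and human serum, and plates stood at 37 °C and 5% CO2 for 48 h. Viability is reported as CellTiter-Glo luminescence relative to the median of 16 inner DMSO wells.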

[2] = tested on: primary AML patient cells (S056)
In short: as §1

[3] = tested on: primary AML patient cells (S085)
In short: as §1

[4] = tested on: primary CLL patient cells (S031)
In short: as §1

[5] = tested on: primary CLL patient cells (S043)
In short: as §1

[6] = tested on: primary MCL patient cells (S041)
In short: as §1

[7] = tested on: primary AML patient cells (S081)
In short: as §1

[8] = tested on: primary AML patient cells (S037)
In short: as §1

[9] = tested on: primary AML patient cells (S012)
In short: as §1

[10] = tested on: primary T-PLL patient cells (S008)
In short: as §1

[11] = tested on: primary MCL patient cells (S063)
In short: as §1

[12] = tested on: primary AML patient cells (S007)
In short: as §1

[13] = tested on: primary MCL patient cells (S068)
In short: as §1

[14] = tested on: primary AML patient cells (S011)
In short: as §1

[15] = tested on: primary BL patient cells (S005)
In short: as §1

[16] = tested on: primary T-NHL patient cells (S058)
In short: as §1

[17] = tested on: primary DLBCL patient cells (S076)
In short: as §1

[18] = tested on: primary AML patient cells (S006)
In short: as §1

[19] = tested on: primary DLBCL patient cells (S049)
In short: as §1

CN1CC[C@H](c2c(O)cc(O)c3c(=O)cc(-c4ccccc4Cl)oc23)[C@H](O)C1 [Flavopiridol]
viability ([1]; 0.0032 µM): 1.04
viability ([1]; 0.016 µM): 0.947
viability ([1]; 0.08 µM): 0.842
viability ([1]; 0.4 µM): 0.0906
viability ([1]; 2 µM): 0.0365
viability ([2]; 0.0032 µM): 0.928
viability ([2]; 0.016 µM): 0.75
viability ([2]; 0.08 µM): 0.367
viability ([2]; 0.4 µM): 0.065
viability ([2]; 2 µM): 0.0807
viability ([3]; 0.0032 µM): 0.86
viability ([3]; 0.016 µM): 0.858
viability ([3]; 0.08 µM): 0.651
viability ([3]; 0.4 µM): 0.0968
viability ([3]; 2 µM): 0.0387
viability ([4]; 0.0032 µM): 1.04
viability ([4]; 0.016 µM): 0.914
viability ([4]; 0.08 µM): 0.963
viability ([4]; 0.4 µM): 0.0407
viability ([4]; 2 µM): 0.0147
viability ([5]; 0.0032 µM): 0.933
viability ([5]; 0.016 µM): 1.02
viability ([5]; 0.08 µM): 0.912
viability ([5]; 0.4 µM): 0.265
viability ([5]; 2 µM): 0.0335
viability ([6]; 0.0032 µM): 1.01
viability ([6]; 0.016 µM): 0.914
viability ([6]; 0.08 µM): 0.892
viability ([6]; 0.4 µM): 0.0723
viability ([6]; 2 µM): 0.0378
viability ([7]; 0.0032 µM): 1.01
viability ([7]; 0.016 µM): 0.873
viability ([7]; 0.08 µM): 0.766
viability ([7]; 0.4 µM): 0.0954
viability ([7]; 2 µM): 0.0215
viability ([8]; 0.0032 µM): 0.979
viability ([8]; 0.016 µM): 0.948
viability ([8]; 0.08 µM): 0.914
viability ([8]; 0.4 µM): 0.633
viability ([8]; 2 µM): 0.328
viability ([9]; 0.0032 µM): 0.979
viability ([9]; 0.016 µM): 0.904
viability ([9]; 0.08 µM): 0.869
viability ([9]; 0.4 µM): 0.151
viability ([9]; 2 µM): 0.0418
viability ([10]; 0.0032 µM): 0.953
viability ([10]; 0.016 µM): 1.03
viability ([10]; 0.08 µM): 0.916
viability ([10]; 0.4 µM): 0.804
viability ([10]; 2 µM): 0.0718
viability ([11]; 0.0032 µM): 0.987
viability ([11]; 0.016 µM): 0.935
viability ([11]; 0.08 µM): 0.887
viability ([11]; 0.4 µM): 0.269
viability ([11]; 2 µM): 0.0178
viability ([12]; 0.0032 µM): 0.945
viability ([12]; 0.016 µM): 0.68
viability ([12]; 0.08 µM): 0.624
viability ([12]; 0.4 µM): 0.127
viability ([12]; 2 µM): 0.0782
viability ([13]; 0.0032 µM): 0.98
viability ([13]; 0.016 µM): 0.982
viability ([13]; 0.08 µM): 0.82
viability ([13]; 0.4 µM): 0.0704
viability ([13]; 2 µM): 0.0301
viability ([14]; 0.0032 µM): 0.859
viability ([14]; 0.016 µM): 0.754
viability ([14]; 0.08 µM): 0.715
viability ([14]; 0.4 µM): 0.0633
viability ([14]; 2 µM): 0.0225
viability ([15]; 0.0032 µM): 0.794
viability ([15]; 0.016 µM): 1.26
viability ([15]; 0.08 µM): 0.644
viability ([15]; 0.4 µM): 0.534
viability ([15]; 2 µM): 0.983

Nc1ccc2ncnc(NCCc3ccc(Oc4ccccc4)cc3)c2c1 [EVP4593]
viability ([16]; 0.008 µM): 1.09
viability ([16]; 0.04 µM): 0.934
viability ([16]; 0.2 µM): 0.784
viability ([16]; 1 µM): 0.809
viability ([16]; 5 µM): 0.715
viability ([2]; 0.008 µM): 0.691
viability ([2]; 0.04 µM): 0.627
viability ([2]; 0.2 µM): 0.412
viability ([2]; 1 µM): 0.313
viability ([2]; 5 µM): 0.307
viability ([3]; 0.008 µM): 2.31
viability ([3]; 0.04 µM): 0.901
viability ([3]; 0.2 µM): 1.11
viability ([3]; 1 µM): 0.666
viability ([3]; 5 µM): 0.55
viability ([4]; 0.008 µM): 0.884
viability ([4]; 0.04 µM): 0.854
viability ([4]; 0.2 µM): 0.803
viability ([4]; 1 µM): 0.686
viability ([4]; 5 µM): 0.601
viability ([5]; 0.008 µM): 0.794
viability ([5]; 0.04 µM): 0.794
viability ([5]; 0.2 µM): 0.774
viability ([5]; 1 µM): 0.726
viability ([5]; 5 µM): 0.695
viability ([6]; 0.008 µM): 0.902
viability ([6]; 0.04 µM): 0.93
viability ([6]; 0.2 µM): 0.873
viability ([6]; 1 µM): 0.716
viability ([6]; 5 µM): 0.729
viability ([7]; 0.008 µM): 0.859
viability ([7]; 0.04 µM): 0.821
viability ([7]; 0.2 µM): 0.799
viability ([7]; 1 µM): 0.784
viability ([7]; 5 µM): 0.78
viability ([8]; 0.008 µM): 0.943
viability ([8]; 0.04 µM): 0.813
viability ([8]; 0.2 µM): 0.859
viability ([8]; 1 µM): 1.08
viability ([8]; 5 µM): 1.07
viability ([9]; 0.008 µM): 1.05
viability ([9]; 0.04 µM): 1.03
viability ([9]; 0.2 µM): 1.07
viability ([9]; 1 µM): 0.992
viability ([9]; 5 µM): 1.05
viability ([10]; 0.008 µM): 0.997
viability ([10]; 0.04 µM): 0.971
viability ([10]; 0.2 µM): 0.894
viability ([10]; 1 µM): 0.861
viability ([10]; 5 µM): 0.868
viability ([17]; 0.008 µM): 0.999
viability ([17]; 0.04 µM): 0.989
viability ([17]; 0.2 µM): 0.741
viability ([17]; 1 µM): 0.657
viability ([17]; 5 µM): 0.551
viability ([11]; 0.008 µM): 0.934
viability ([11]; 0.04 µM): 0.945
viability ([11]; 0.2 µM): 0.924
viability ([11]; 1 µM): 0.874
viability ([11]; 5 µM): 0.866
viability ([12]; 0.008 µM): 0.722
viability ([12]; 0.04 µM): 0.514
viability ([12]; 0.2 µM): 0.379
viability ([12]; 1 µM): 0.257
viability ([12]; 5 µM): 0.217
viability ([13]; 0.008 µM): 0.844
viability ([13]; 0.04 µM): 0.766
viability ([13]; 0.2 µM): 0.741
viability ([13]; 1 µM): 0.683
viability ([13]; 5 µM): 0.676
viability ([18]; 0.008 µM): 0.855
viability ([18]; 0.04 µM): 0.755
viability ([18]; 0.2 µM): 0.557
viability ([18]; 1 µM): 0.362
viability ([18]; 5 µM): 0.248
viability ([14]; 0.008 µM): 0.746
viability ([14]; 0.04 µM): 0.633
viability ([14]; 0.2 µM): 0.617
viability ([14]; 1 µM): 0.467
viability ([14]; 5 µM): 0.459
viability ([19]; 0.008 µM): 0.89
viability ([19]; 0.04 µM): 0.763
viability ([19]; 0.2 µM): 0.37
viability ([19]; 1 µM): 0.257
viability ([19]; 5 µM): 0.197
viability ([15]; 0.008 µM): 1.01
viability ([15]; 0.04 µM): 0.939
viability ([15]; 0.2 µM): 0.811
viability ([15]; 1 µM): 0.73
viability ([15]; 5 µM): 0.716
